Test: Measurement of gelation temperature by DSC and rheology (Example 1)
Type: physicochemical
Conditions: addition of 0.5% 5-FU to gel P407/P188/Alginate (20/2/1) (FIG. 2)
Description: The gelation temperature (Tgel) was determined by Differential Scanning calorimetry (DSC) and rheology.
By DSC: between 20-35 mg of the solution were sealed in aluminium pans and placed into the DSC instrument (DSC 1, Mettler Toledo). An empty aluminium pan (size: 40 μL) served as a reference sample. The instrument was equilibrated at 5° C. for 7 min prior to initiation of the scans. The sample was then heated to 40° C. at a heating rate of 5° C./min. Data analysis was performed with the software preinstalled in the instrument (STARe Software). The gelation temperature was determined as the small enthalpy change which was visible around at 10-12° C. above the big endothermic peak caused by micellization of the poloxamers, as already done in other studies (Nie et al, Int. J. Nanomedicine. 6 (2011) 151-166. doi:10.2147/IJN.S15057).
By rheology: a deformation was applied and varied between 0.01 to 100% at a fixed frequency of 1 Hz with a cone/plan mobile with an angle of 1°, a diameter of 50 mm and with a gap of 0.1 mm. The sample was left at room temperature for 1 hour, then approximately 750 μL was loaded on the pelletier plan which is submitted to a temperature increase. The viscoelastic moduli G′ and G″ are measured. The gelation temperature corresponds to the curve intersections.

O=c1[nH]cc(F)c(=O)[nH]1 [Composition 5-FU, 5-Fluorouracil]
increase of the gelation temperature: 2 °C

Source: patent US11291630B2, “Gelling compositions for treating malignant tumours and/or preventing tumour recurrence” (Centre National de la Recherche Scientifique (CNRS), priority 2015, dated 2022)
